PubChem BioAssay AID1919017 (Molecular Pharmacology Branch, DTP, NCI, 2023)

Tested on: SW1271 complex spheroids with HUVEC/MSC, growth, % test/control
Assay: Anticancer human tumor SW1271 cell line growth inhibition [AhR];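 also: spheroids exposed to agents for 7 days before readout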
Conditions: for IC50: curve of first compound; for viability, T/C: stronger effect = lower value; active = viability on the fitted dose curve at most 10% of control; inactive = the rest
How it was run: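 Agents were dosed in half-log steps down from roughly clinical Cmax, or from 10 microM where Cmax was unknown, alone and with AhR antagonists. Read-out: percent test/control growth of tumor spheroids containing HUVEC and MSC stromal cells.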

CC1(C)CCC(CN2CCN(c3ccc(C(=O)NS(=O)(=O)c4ccc(NCC5CCOCC5)c([N+](=O)[O-])c4)c(Oc4cnc5[nH]ccc5c4)c3)CC2)=C(c2ccc(Cl)cc2)C1 + Cc1ccccc1N=Nc1ccc(NC(=O)c2ccnn2C)c(C)c1
> 10 µM: IC50 (second compound 0.1 µM) | IC50 (second compound 0.316 µM) | IC50 (second compound 1 µM) | IC50 (second compound 3.16 µM) | IC50 (second compound 10 µM)
inactive: viability, T/C (second compound 0.1 µM, first compound 0.0316 µM) 96.4% | viability, T/C (second compound 0.1 µM, first compound 0.1 µM) 99.5% | viability, T/C (second compound 0.1 µM, first compound 0.316 µM) 100% | viability, T/C (second compound 0.1 µM, first compound 1 µM) 79.4% | viability, T/C (second compound 0.1 µM, first compound 3.16 µM) 88.2% | viability, T/C (second compound 0.1 µM, first compound 10 µM) 94.1% | viability, T/C (second compound 0.316 µM, first compound 0.0316 µM) 110% | viability, T/C (second compound 0.316 µM, first compound 0.1 µM) 78.6% | viability, T/C (second compound 0.316 µM, first compound 0.316 µM) 102% | viability, T/C (second compound 0.316 µM, first compound 1 µM) 99.3% | viability, T/C (second compound 0.316 µM, first compound 3.16 µM) 85.4% | viability, T/C (second compound 0.316 µM, first compound 10 µM) 90% | viability, T/C (second compound 1 µM, first compound 0.0316 µM) 110% | viability, T/C (second compound 1 µM, first compound 0.1 µM) 88% | viability, T/C (second compound 1 µM, first compound 0.316 µM) 113% | viability, T/C (second compound 1 µM, first compound 1 µM) 92.9% | viability, T/C (second compound 1 µM, first compound 3.16 µM) 95.1% | viability, T/C (second compound 1 µM, first compound 10 µM) 128% | viability, T/C (second compound 3.16 µM, first compound 0.0316 µM) 91.9% | viability, T/C (second compound 3.16 µM, first compound 0.1 µM) 105% | viability, T/C (second compound 3.16 µM, first compound 0.316 µM) 87.5% | viability, T/C (second compound 3.16 µM, first compound 1 µM) 76.1% | viability, T/C (second compound 3.16 µM, first compound 3.16 µM) 78.3% | viability, T/C (second compound 3.16 µM, first compound 10 µM) 112% | viability, T/C (second compound 10 µM, first compound 0.0316 µM) 102% | viability, T/C (second compound 10 µM, first compound 0.1 µM) 99.3% | viability, T/C (second compound 10 µM, first compound 0.316 µM) 98.4% | viability, T/C (second compound 10 µM, first compound 1 µM) 86% | viability, T/C (second compound 10 µM, first compound 3.16 µM) 83% | viability, T/C (second compound 10 µM, first compound 10 µM) 93.3%

CCN(c1cc(-c2ccc(CN3CCOCC3)cc2)cc(C(=O)NCc2c(C)cc(C)[nH]c2=O)c1C)C1CCOCC1 + Cc1ccccc1N=Nc1ccc(NC(=O)c2ccnn2C)c(C)c1
inactive: viability, T/C (second compound 0.1 µM, first compound 0.00949 µM) 115% | viability, T/C (second compound 0.1 µM, first compound 0.03 µM) 111% | viability, T/C (second compound 0.1 µM, first compound 0.0949 µM) 117% | viability, T/C (second compound 0.1 µM, first compound 0.3 µM) 107% | viability, T/C (second compound 0.1 µM, first compound 0.949 µM) 118% | viability, T/C (second compound 0.1 µM, first compound 3 µM) 110% | viability, T/C (second compound 0.316 µM, first compound 0.00949 µM) 115% | viability, T/C (second compound 0.316 µM, first compound 0.03 µM) 118% | viability, T/C (second compound 0.316 µM, first compound 0.0949 µM) 106% | viability, T/C (second compound 0.316 µM, first compound 0.3 µM) 123% | viability, T/C (second compound 0.316 µM, first compound 0.949 µM) 105% | viability, T/C (second compound 0.316 µM, first compound 3 µM) 107% | viability, T/C (second compound 1 µM, first compound 0.00949 µM) 117% | viability, T/C (second compound 1 µM, first compound 0.03 µM) 110% | viability, T/C (second compound 1 µM, first compound 0.0949 µM) 122% | viability, T/C (second compound 1 µM, first compound 0.3 µM) 122% | viability, T/C (second compound 1 µM, first compound 0.949 µM) 98% | viability, T/C (second compound 1 µM, first compound 3 µM) 88% | viability, T/C (second compound 3.16 µM, first compound 0.00949 µM) 99.3% | viability, T/C (second compound 3.16 µM, first compound 0.03 µM) 114% | viability, T/C (second compound 3.16 µM, first compound 0.0949 µM) 102% | viability, T/C (second compound 3.16 µM, first compound 0.3 µM) 148% | viability, T/C (second compound 3.16 µM, first compound 0.949 µM) 120% | viability, T/C (second compound 3.16 µM, first compound 3 µM) 108% | viability, T/C (second compound 10 µM, first compound 0.00949 µM) 96.5% | viability, T/C (second compound 10 µM, first compound 0.03 µM) 103% | viability, T/C (second compound 10 µM, first compound 0.0949 µM) 91.7% | viability, T/C (second compound 10 µM, first compound 0.3 µM) 111% | viability, T/C (second compound 10 µM, first compound 0.949 µM) 103% | viability, T/C (second compound 10 µM, first compound 3 µM) 118%
> 3 µM: IC50 (second compound 0.1 µM) | IC50 (second compound 0.316 µM) | IC50 (second compound 1 µM) | IC50 (second compound 3.16 µM) | IC50 (second compound 10 µM)
